test system: VEGFA (786-O cells); experiment: VEGFA ELISA Assay (IC50); type: cell-based; details: 24 hours incubation, VEGFA in culture supernatant by ELISA, class symbols
Experimental: 786-O cells in exponential growth phase were seeded in 96-well plate, the cell concentration was 65,000 cells per milliliter of culture medium, 180 ul per well. Compounds were serial diluted to the indicated concentration, and 20 ul compound solutions of different concentrations were added to the corresponding cell wells. The final compound concentrations were as follows (nM): 1.5, 4.6, 13.7, 41.2, 123.5, 370.4, 1111.1, 3333.3, 10000. After 24 hours of incubation, the cell culture supernatant was taken, and the VEGFA concentration was determined using an ELISA kit (purchased from abcam). Finally, the reaction was terminated, and the light absorbance value of each well was measured using a microplate reader at a wavelength of […], and IC50 was calculated by GraphPad Prism. Cell Titer-Glo reagent was used to measure cell viability.

Row | Compound | IC50
1 | O[C@H]1c2c(C(F)(F)F)c(Cl)n(-c3ccc(F)c(Cl)c3)c2CCC1(F)F [Example 107, (S)-2-chloro-1-(3-chloro-54-fluorophenyl)-5,5-difluoro-3-(trifluoromethyl)-4,5,6,7-tetrahydro-1H-indol-4-ol] | ≤ 500 nM
2 | Fc1cc(Cl)cc(-n2cc(C(F)(F)F)c3c2CCc2cnoc2-3)c1 [Example 201, 6-(3-chloro-5-fluorophenyl)-8-(trifluoromethyl)-5,6-dihydro-4-H-isoxazolo[5,4-e]indole] | > 1500 nM
3 | OC1c2c(C(F)(F)F)cn(Cc3cc(F)cc(Cl)c3)c2CCC1(F)F (stereo not shown) [Example 29] | 1500 to 10000 nM

same assay, conditions: Homo sapiens, 786-0, 24 h, 24 hours incubation, VEGFA in culture supernatant by ELISA, class symbols

Row | Compound | IC50
4 | CS(=O)(=O)c1cn(-c2cc(F)cc(C#N)c2)c2c1C(O)C(F)CC2 (stereo not shown) [Example 193, 3-fluoro-5-(5-fluoro-4-hydroxy-3-(methylsulfonyl)-4,5,6,7-tetrahydro-1H-indol-1-yl)benzonitrile] | ≤ 500 nM
5 | CS(=O)(=O)c1nn(Cc2ccc(F)cc2)c2c1C(=O)CCC2 [Example 93, 1-(4-fluorobenzyl)-3-(methylsulfonyl)-1,5,6,7-tetrahydro-4H-indazol-4-one] | > 1500 nM
6 | OC1c2c(-c3ccco3)cn(-c3cc(F)cc(Cl)c3)c2CCC1(F)F (stereo not shown) [Example 53, 1-(3-chloro-5-fluorophenyl)-5,5-difluoro-3-(furan-2-yl)-4,5,6,7-tetrahydro-1H-indol-4-ol] | ≤ 500 nM
7 | OC1c2c(C(F)(F)F)nn(-c3cc(F)cc(Cl)c3)c2CCC1(F)F (stereo not shown) [Example 90, 1-(3-chloro-5-fluorophenyl)-5,5-difluoro-3-(trifluoromethyl)-4,5,6,7-tetrahydro-1H-indazol-4-ol] | > 1500 nM
8 | N#Cc1cc(-n2cc(-c3cncs3)c3c2CCC(F)(F)C3O)ccc1F (stereo not shown) [Example 54, 5-(5,5-difluoro-4-hydroxy-3-(thiazol-5-yl)-4,5,6,7-tetrahydro-1H-indol-1-yl)-2-fluorobenzonitrile] | 500 to 1500 nM
9 | OC1CCCc2c1c(C(F)(F)F)cn2-c1ccc(F)c(C(F)F)c1 (stereo not shown) [Example 108, 1-(3-(difluoromethyl)-4-fluorophenyl)-3-(trifluoromethyl)-4,5,6,7-tetrahydro-1H-indol-4-ol] | ≤ 500 nM
10 | OC1c2c(C(F)(F)F)cn(-c3cc(F)cc(Cl)c3)c2CCC1F (stereo not shown) [Example 142, 1-(3-chloro-5-fluorophenyl)-5-fluoro-3-(trifluoromethyl)-4,5,6,7-tetrahydro-1H-indol-4-ol] | ≤ 500 nM
11 | OC1c2c(C(F)(F)F)cn(-c3cc(F)cc(C(F)(F)F)c3)c2CCC1(F)F (stereo not shown) [Example 24] | ≤ 500 nM
12 | N#Cc1cc(F)cc(-n2cc(C(F)(F)F)c3c2CCC(F)C3O)c1 (stereo not shown) [Example 139, 3-fluoro-5-(5-fluoro-4-hydroxy-3-(trifluoromethyl)-4,5,6,7-tetrahydro-1H-indol-1-yl)benzonitrile] | ≤ 500 nM
13 | CC1(O)c2c(C(F)(F)F)cn(-c3ccc(F)c(C#N)c3)c2CCC1(F)F (stereo not shown) [Example 100, 5-(5,5-difluoro-4-hydroxyl-4-methyl-3-(trifluoromethyl)-4,5,6,7-tetrahydro-1H-indol-1-yl)-2-fluorobenzonitrile] | ≤ 500 nM
14 | N#Cc1cn(-c2cc(F)cc(Cl)c2)c2c1C(O)C(F)(F)CC2 (stereo not shown) [Example 96, 1-(3-chloro-5-fluorophenyl)-5,5-difluoro-4-hydroxyl-4,5,6,7-tetrahydro-1H-indol-3-carbonitrile] | ≤ 500 nM
15 | OC1c2c(C(F)(F)F)cn(/C=C/c3ccccc3)c2CCC1(F)F (stereo not shown) [Example 181, (E)-5,5-difluoro-1-styryl-3-(trifluoromethyl)-4,5,6,7-tetrahydro-1H-indol-4-ol] | 1500 to 10000 nM
16 | O[C@@H]1c2c(C(F)(F)F)cn(-c3ccc(F)c(C(F)F)c3)c2CCC1(F)F [Example 174, (R)-1-(3-(difluoromethyl)-4-fluorophenyl)-5,5-difluoro-3-(trifluoromethyl)-4,5,6,7-tetrahydro-1H-indol-4-ol] | 500 to 1500 nM
17 | OC1c2c(C(F)(F)F)cc(-c3cc(F)cc(Cl)c3)n2CCC1F (stereo not shown) [Example 68, 3-(3-chloro-5-fluorophenyl)-7-fluoro-1-(trifluoromethyl)-5,6,7,8-tetrahydroindolizin-8-ol] | ≤ 500 nM
18 | OC1c2c(C(F)(F)F)nn(-c3cc(F)cc(F)c3)c2CCC1(F)F (stereo not shown) [Example 88, 1-(3,5-difluorophenyl)-5,5-difluoro-3-(trifluoromethyl)-4,5,6,7-tetrahydro-1H-indazol-4-ol] | > 1500 nM
19 | N#Cc1cc(F)cc(-n2cc(C(F)(F)F)c3c2CCCC3O)c1 (stereo not shown) [Example 41, 3-fluoro-5-(4-hydroxy-3-(trifluoromethyl)-4,5,6,7-tetrahydo-1H-indol-1-yl)benzonitrile] | 500 to 1500 nM
20 | N#Cc1cc(F)cc(-n2nc(C(F)(F)F)c3c2CCC(F)(F)C3O)c1 (stereo not shown) [Example 92] | > 1500 nM

Row | Compound | IC50
21 | OC1c2c(C(F)(F)F)cn(-c3ccc(F)nc3)c2CCC1(F)F (stereo not shown) [Example 170] | 500 to 1500 nM
22 | OC1c2c(C(F)(F)F)cn(-c3ccc(Cl)cc3)c2CC(F)C1F (stereo not drawn) [Example 130, l-(4-chlorophenyl)-5,6-difluoro-3-(trifluoromethyl)-4,5,6,7-tetrahydro-1H-indol-4-ol] | ≤ 500 nM
23 | Cn1cccc1-c1cn(-c2cc(F)cc(Cl)c2)c2c1C(O)C(F)(F)CC2 (stereo not shown) [Example 51, 1-(3-chloro-5-fluorophenyl)-5,5-difluoro-3-(1-methyl-1H-pyrrol-2-yl)-4,5,6,7-tetrahydro-1H-indol-4-ol] | 500 to 1500 nM
24 | O=C1c2c(C(F)(F)F)cn(-c3ccc(F)c(C(F)F)c3)c2CCC1(F)F [Example 190, 1-(3-(difluoromethyl)-4-fluorophenyl)-5,5-difluoro-3-(trifluoromethyl)-1,5,6,7-tetrahydro-4H-indol-4-one] | 500 to 1500 nM
25 | CS(=O)(=O)c1cn(-c2ccc(F)c(C#N)c2)c2c1[C@H](O)C(F)(F)CC2 [Example 134, (S)-5-(5,5-difluoro-4-hydroxy-3-(methylsulfonyl)-4,5,6,7-tetrahydro-1H-indol-1-yl)-2-fluorobenzonitrile] | ≤ 500 nM
26 | CC1Cc2c(c(C(F)(F)F)cn2-c2ccc(F)c(C#N)c2)[C@H](O)C1(F)F (stereo partly shown) [Example 180] | 500 to 1500 nM
27 | OC1c2c(C(F)(F)F)cn(-c3ccc(F)c(F)c3)c2CCC1(F)F (stereo not shown) [Example 164] | ≤ 500 nM
28 | N#Cc1cc(-n2cc(I)c3c2CCC(F)(F)C3O)ccc1F (stereo not shown) [Example 5, 5-(5,5-difluoro-hydroxy-3-iodo-4,5,6,7-tetrahydro-1H-indol-1-yl)-2-fluorobenzonitrile] | 500 to 1500 nM
29 | N#Cc1cc(Cl)cc(-n2cc(C(F)(F)F)c3c2CCC(F)(F)C3O)c1 (stereo not shown) [Example 154, 3-chloro-5-(5,5-difluoro-4-hydroxy-3-(trifluoromethyl)-4,5,6,7-tetrahydro-1H-indol-1-yl)benzonitrile] | ≤ 500 nM
30 | OC1c2c(-c3ccccc3)cn(-c3cc(F)cc(Cl)c3)c2CCC1(F)F (stereo not shown) [Example 145] | 1500 to 10000 nM
31 | CC1Cc2c(c(C(F)(F)F)cn2-c2ccc(F)c(C#N)c2)C(O)C1(F)F (stereo not shown) [Example 179, 5-(5,5-difluoro-4-hydroxy-6-methyl-3-(trifluoromethyl)-4,5,6,7-tetrahydro-1H-indol-1-yl)-2-fluorobenzonitrile] | 500 to 1500 nM
32 | OC1c2c(C(F)(F)F)cn(-c3cc(F)cc(Cl)c3)c2C(F)CC1F (stereo not shown) [Example 141] | ≤ 500 nM
33 | OC1c2c(C(F)(F)F)cn(-c3cncc(F)c3)c2CCC1(F)F (stereo not shown) [Example 133] | 500 to 1500 nM
34 | OC1c2c(C(F)(F)F)cn(-c3cc(F)cc(Cl)c3)c2CCC1(F)F (stereo not shown) [Example 97, 1-(3-chloro-5-fluorophenyl)-5,5-difluoro-3-(trifluoromethyl)-4,5,6,7-tetrahydro-1H-indol-4-ol] | ≤ 500 nM
35 | OC1c2c(C(F)(F)F)cc(-c3cc(F)cc(F)c3)n2CCC1(F)F (stereo not shown) [Example 76, 3-(3,5-difluorophenyl)-7,7-difluoro-1-(trifluoromethyl)-5,6,7,8-tetrahydroindolizin-8-ol] | ≤ 500 nM
36 | OC1c2c(C(F)(F)F)cn(-c3cncc(F)c3)c2CC(F)C1F (stereo not shown) [Example 132, 5,6-difluoro-1-(5-fluoropyridin-3-yl)-3-(trifluoromethyl)-4,5,6,7-tetranydro-1H-indol-4-ol] | ≤ 500 nM
37 | N#Cc1ccc(-n2cc(C(F)(F)F)c3c2CCC(F)(F)C3O)cc1 (stereo not shown) [Example 13, 4-(5,5-difluoro-4-hydroxy-3 (trifluoromethyl)-4,5,6,7-tetrahydro-1H-indol-1-yl)benzonitrile] | ≤ 500 nM

same assay, conditions: Homo sapiens, 786-0, 24 h, 24 hours incubation, VEGFA in culture supernatant by ELISA, numeric values

Row | Compound | IC50
38 | OC1c2c(C(F)(F)F)cc(-c3cc(F)cc(Cl)c3)n2CCC1(F)F (stereo not shown) [Example 71, 3-(3-chloro-5-fluoropheny1)-7,7-difluoro-1-(trifluoromethyl)-5,6,7,8-tetrahydroindolizin-8-ol] | 13.8 nM
39 | OC1c2c(C(F)(F)F)cn(-c3ccc(F)cc3)c2CCC1(F)F (stereo not shown) [Example 160, 5,5-difluoro-1-(4-fluorophenyl)-3-(trifluoromethyl)-4,5,6,7-tetrahydro-1H-indol-4-ol] | 46.1 nM
40 | N#Cc1cc(F)cc(-c2cc(C(F)(F)F)c3n2CCC(F)(F)C3O)c1 (stereo not shown) [Example 77, 3-(7,7-difluoro-8-hydroxy-1-(trifluoromethyl)-5,6,7,8-tetrahydroindolizin-3-yl)-5-fluorobenzonitrile] | 16.2 nM
41 | OC1c2c(C(F)(F)F)cn(-c3cc(F)cc(Br)c3)c2CCC1(F)F (stereo not shown) [Example 22] | 55.4 nM
42 | N#Cc1cc(-n2cc(C(F)(F)F)c3c2CCC(F)(F)C3O)ccc1Cl (stereo not shown) [Example 137] | 42.1 nM
43 | N#Cc1ccc(-n2cc(C(F)(F)F)c3c2CCC(F)(F)C3O)cc1F (stereo not shown) [Example 122, 4-(5,5-difluoro-4-hydroxy-3-(trifluoromethyl)-4,5,6,7-tetrahydro-1H-indol-1-yl)-2-fluorobenzonitrile] | 42.6 nM

Source: US20230219890A1, “BICYCLIC COMPOUNDS AND USE THEREOF” (Betta Pharmaceuticals Co.,Ltd, priority 2020, published 2023)
